# Values quoted from earlier work in patent US20230255891A1, “Highly Compactable and Durable Direct Compression Excipients and Excipient Systems” (SPI Pharma, Inc., priority 2009, published 2023).
# Key:
# [1] = in water at 25
# [2] = for 80° C. Solubility Kilos/100 Kilo solution: spray liquid temperature; for solubility in water: at 80 C in solution
Compound,Solubility At 25 (g/100 g H2O) [1],80° C. Solubility Kilos/100 Kilo solution [2] [Kilos/100 Kilo solution],solubility in water [2]
OC[C@@H](O)[C@@H](O)CO [Erythritol],61 g/100 g H2O,,
O=C(CO)[C@@H](O)[C@H](O)[C@H](O)CO [Fructose],400 g/100 g H2O,,
OCC(O)CO [Glycerin],Soluble,,
OC[C@@H](O)[C@@H](O[C@@H]1O[C@H](CO)[C@H](O)[C@H](O)[C@H]1O)[C@H](O)[C@@H](O)CO [Lactitol Monohydrate],140 g/100 g H2O,,
OC[C@@H](O)[C@@H](O[C@@H]1O[C@H](CO)[C@H](O)[C@H](O)[C@H]1O)[C@H](O)[C@@H](O)CO [Lactitol],,82,
Anhydrous Isomalt,39 g/100 g H2O,,
Isomalt,,71,

# Continued, values first:
Solubility At 25 (g/100 g H2O) [1],80° C. Solubility Kilos/100 Kilo solution [2] [Kilos/100 Kilo solution],solubility in water [2],Compound
175 g/100 g H2O,80.5,about 80%,OC[C@@H](O)[C@@H](O[C@H]1O[C@@H](CO)[C@@H](O)[C@@H](O)[C@H]1O)[C@H](O)[C@@H](O)CO [Maltitol]
22 g/100 g H2O,47.3,about 47%,OC[C@@H](O)[C@@H](O)[C@H](O)[C@H](O)CO [Mannitol]
235 g/100 g H2O,92,about 92%,OC[C@@H](O)[C@@H](O)[C@H](O)[C@@H](O)CO [Sorbitol]
185 g/100 g H2O,,,OC[C@H]1O[C@@](CO)(O[C@H]2O[C@H](CO)[C@@H](O)[C@H](O)[C@H]2O)[C@@H](O)[C@@H]1O [Sucrose]
200 g/100 g H2O,,,OC[C@@H](O)[C@H](O)[C@@H](O)CO [Xylitol]
